# Reference: US4067997A, “Synergistic microbecidal composition and method” (priority 1976, dated 1978)
# Legend:
# Test in all cases: MIC on mass basis (Example V procedure)
# Format in all cases: cell-based
# Pseudomonas aeruginosa = test system: Pseudomonas aeruginosa
# Summary of the method: (§1)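 MIC was determined on a mass (μg/ml) basis rather than a molar basis against gram-negative and gram-positive organisms. Phenolic compounds were tested alone, combined with glycerol monolaurin (GML), and combined with GML plus calcium EDTA and BHA.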
# Escherichia coli = test system: Escherichia coli
# Summary of the method: as §1
# Saccharomyces cerevisiae = test system: Saccharomyces cerevisiae
# Nocardia asteroides = test system: Nocardia asteroides
# Summary of the method: as §1
smiles,measurement,setting,value
"CCCCCCCCCCCC(=O)OCC(O)CO (stereo not shown) [GML, glycerol mono-laurin]",MIC,"Pseudomonas aeruginosa; Table 13, Pseudomonas aeruginosa","> 1,000 μg/ml"
same,MIC,"Pseudomonas aeruginosa; Table 14, Pseudomonas aeruginosa","> 1,000 μg/ml"
same,MIC,"Pseudomonas aeruginosa; Table 16, Pseudomonas aeruginosa, no unit in table","> 1,000"
same,MIC of GML,"Pseudomonas aeruginosa; Table 17, EDTA 0","> 10,000 μg/ml"
same,MIC of GML,"Pseudomonas aeruginosa; Table 17, EDTA 125","> 10,000 μg/ml"
same,MIC of GML,"Pseudomonas aeruginosa; Table 17, EDTA 250","> 10,000 μg/ml"
same,MIC of GML,"Pseudomonas aeruginosa; Table 17, EDTA 500","> 10,000 μg/ml"
same,MIC of GML,"Pseudomonas aeruginosa; Table 17, EDTA 1,000","> 10,000 μg/ml"
same,MIC of GML,"Pseudomonas aeruginosa; Table 17, EDTA 5,000",100 µg/mL
same,MIC of GML,"Pseudomonas aeruginosa; Table 17, EDTA 10,000",< 10 µg/mL
same,MIC,"Escherichia coli; Table 13, Escherichia coli","> 1,000 μg/ml"
same,MIC,"Escherichia coli; Table 14, Escherichia coli","> 1,000 μg/ml"
same,MIC,"Escherichia coli; Table 16, Escherichia coli, no unit in table (Example 5 procedure, mass basis)","> 1,000"
same,MIC of GML,"Escherichia coli; Table 17, EDTA 0","> 10,000 μg/ml"
same,MIC of GML,"Escherichia coli; Table 17, EDTA 125","> 10,000 μg/ml"
same,MIC of GML,"Escherichia coli; Table 17, EDTA 250","> 10,000 μg/ml"
same,MIC of GML,"Escherichia coli; Table 17, EDTA 500","> 10,000 μg/ml"
same,MIC of GML,"Escherichia coli; Table 17, EDTA 1,000","> 10,000 μg/ml"
same,MIC of GML,"Escherichia coli; Table 17, EDTA 5,000","> 10,000 μg/ml"
same,MIC of GML,"Escherichia coli; Table 17, EDTA 10,000","> 10,000 μg/ml"
same,MIC,"Saccharomyces cerevisiae; Table 13, Saccharomyces cerevisiae","< 1,000 μg/ml"
same,MIC,"Saccharomyces cerevisiae; Table 14, Saccharomyces cerevisiae","1,000 μg/ml"
same,MIC,"Saccharomyces cerevisiae; Table 16, Saccharomyces cerevisiae, no unit in table","1,000"
same,MIC of GML,"Saccharomyces cerevisiae; Table 17, EDTA 0","1,000 μg/ml"
same,MIC of GML,"Saccharomyces cerevisiae; Table 17, EDTA 125",500 µg/mL
same,MIC of GML,"Saccharomyces cerevisiae; Table 17, EDTA 250",100 µg/mL
same,MIC of GML,"Saccharomyces cerevisiae; Table 17, EDTA 500",100 µg/mL
same,MIC of GML,"Saccharomyces cerevisiae; Table 17, EDTA 1,000",< 10 µg/mL
same,MIC of GML,"Saccharomyces cerevisiae; Table 17, EDTA 5,000",< 10 µg/mL
same,MIC of GML,"Saccharomyces cerevisiae; Table 17, EDTA 10,000",< 10 µg/mL
same,MIC,"Nocardia asteroides; Table 13, Nocardia asteroides",15.60 µg/mL
same,MIC,"Nocardia asteroides; Table 14, Nocardia asteroides",7.80 µg/mL
same,MIC,"Nocardia asteroides; Table 16, Nocardia asteroides, no unit in table",10
same,MIC of GML,"Nocardia asteroides; Table 17, EDTA 0",< 10 µg/mL
same,MIC of GML,"Nocardia asteroides; Table 17, EDTA 125",100 µg/mL
same,MIC of GML,"Nocardia asteroides; Table 17, EDTA 250",< 10 µg/mL
same,MIC of GML,"Nocardia asteroides; Table 17, EDTA 500",< 10 µg/mL
same,MIC of GML,"Nocardia asteroides; Table 17, EDTA 1,000",< 10 µg/mL
same,MIC of GML,"Nocardia asteroides; Table 17, EDTA 5,000",< 10 µg/mL
same,MIC of GML,"Nocardia asteroides; Table 17, EDTA 10,000",< 10 µg/mL
